Experiment [1] addresses Recombinant human DPP1 enzyme (Homo sapiens (Human), UniProt P53634). The experiment can be described thus: Human DPP1 Enzyme IC50 Assay. The conditions noted are these: human DPP1 enzyme; Table 16; read-out: IC50, nM; Human. The format is biochemical. The protocol: Recombinant human DPP1 enzyme (R&D Systems; Minneapolis, MN) was first proteolytically processed into its mature form using recombinant human cathepsin L (R&D Systems) in a buffer consisting of 20 mM citric acid pH 4.5, 150 mM NaCl, 1 mM EDTA and 10 mM DTT. Test articles were applied to activated human DPP1 enzyme in Assay Buffer (25 mM MES pH 6.0, 50 mM NaCl, 5 mM DTT) in a total reaction volume of 125 μL. 25 μL of compound in Assay Buffer plus 5% DMSO was first added to 50 μL of activated human DPP1 enzyme at a concentration of 1 ng/μL and allowed to pre-incubate for 10 minutes at 37° C. after which 50 μL of 1000 μM H-Gly-Arg-AMC substrate (Bachem; St. Torrance, CA) was added, giving final substrate concentration of 400 μM and a final DMSO concentration of 1%. Substrate cleavage was measured for 90 minutes at 37° C., with fluorescence at Excitation/Emission 350/450 nm measured every 5 minutes. DPP1 concentration was interpolated based on its activity relative to a standard curve of activated human recombinant DPP1 enzyme. IC50 values for each compound were calculated via the XLFit (IDBS Version 5.3.1.3) Add-On to Microsoft Excel using the four parameter fit equation y={A+[(B−A)]/[1+((C/x)^D)]}, which appears as equation number 205 (4 Parameter Logistic Model or Sigmoidal Dose-Response Model) in XLFit. Default constraints were used for each Parameter.

Another experiment has as its target active mouse DPP1 enzyme (Mus musculus (Mouse), UniProt P97821). The experiment can be described thus: Mouse DPP1 Enzyme IC50 Assay. In kind it is biochemical. As to conditions: mouse DPP1 enzyme; Table 16; read-out: IC50, nM; Mouse. On the procedure: Test articles were applied to active mouse DPP1 enzyme (R&D Systems; Minneapolis, MN) in Assay Buffer (50 mM MES pH 5.5, 50 mM NaCl, 5 mM DTT) in a total reaction volume of 125 μL. 25 μL of compound in Assay Buffer plus 5% DMSO was first added to 50 μL of active mouse DPP1 enzyme at a concentration of 62.5 pg/μL and allowed to pre-incubate for 10 minutes at 37° C. after which 50 μL of 1000 μM H-Gly-Arg-AMC substrate (Bachem; St. Torrance, CA) was added, giving final substrate concentration of 400 μM and a final DMSO concentration of 1%. Substrate cleavage was measured for 90 minutes at 37° C., with fluorescence at Excitation/Emission 350/450 nm measured every 5 minutes. DPP1 concentration was interpolated based on its activity relative to a standard curve of recombinant active mouse DPP1 enzyme. IC50 values for each compound were calculated via the XLFit (IDBS Version 5.3.1.3) Add-On to Microsoft Excel using the four parameter fit equation y=(A+((B−A)/(1+((C/x)^D)))), which appears as equation number 205 (4 Parameter Logistic Model or Sigmoidal Dose-Response Model) in XLFit. Default constraints were used for each Parameter. IC50 was defined as the compound concentration at which 50% of enzyme activity was inhibited when compared to the no-compound control.

The next experiment addresses DPP1 in HL-60 cells (Homo sapiens (Human), UniProt P53634). The experiment can be described thus: DPP1 Cell IC50 Assay (HL-60 cells, H-Gly-Phe-AFC substrate). The format is cell-based. As to conditions: Table 16, read-out: Cell Assay. On the procedure:
HL-60 cells (ATCC; Manassas, VA) were maintained in RPMI-1640 supplemented with 20% heat-inactivated FBS and 1× Antibiotic Antimycotic (Cytiva; Marlborough, MA). Media was changed every three to four days and cells were not allowed to exceed 1×10^6 cells per mL. Prior to assay, cells were collected by centrifugation at 500 rcf for 3 minutes, resuspended in PBS and counted. Cells were diluted in PBS to a concentration of 5×10^5 live cells per mL and transferred to black 96-well plates for assay, 60 μL per well. Test articles were diluted in PBS plus 0.5% DMSO, and 20 μL was added to each assay well. Compound was allowed to pre-incubate with cells with gentle shaking at 100 rpm for 60 minutes at 37° C. in a cell culture incubator maintained at 5% CO2, after which 20 μL of 500 μM H-Gly-Phe-AFC substrate (MP Biomedicals; Solon, OH) was added to each well. Plates were returned to the incubator with shaking at 100 rpm for 30 minutes, after which fluorescence was measured at Excitation/Emission 400/505 nm. % Inhibition was calculated from RFU values compared to control cell wells that received only PBS plus 0.5% DMSO. IC50 values for each compound were calculated via the XLFit (IDBS Version 5.3.1.3) Add-On to Microsoft Excel using the four parameter fit equation y=(A+((B−A)/(1+((C/x)^D)))), which appears as equation number 205 (4 Parameter Logistic Model or Sigmoidal Dose-Response Model) in XLFit.

Here are results for 8 compounds from patent US20260062420A1, “NOVEL DPP1 INHIBITORS AND USES THEREOF” (Insmed Incorporated, priority 2022, published 2026).

The structures appear in SMILES notation.

Chain of active mouse DPP1 enzyme (P97821 25-134): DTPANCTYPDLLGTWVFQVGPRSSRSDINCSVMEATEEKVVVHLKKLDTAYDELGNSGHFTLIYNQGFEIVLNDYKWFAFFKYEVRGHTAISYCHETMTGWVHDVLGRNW
Chain of active mouse DPP1 enzyme (P97821 231-393): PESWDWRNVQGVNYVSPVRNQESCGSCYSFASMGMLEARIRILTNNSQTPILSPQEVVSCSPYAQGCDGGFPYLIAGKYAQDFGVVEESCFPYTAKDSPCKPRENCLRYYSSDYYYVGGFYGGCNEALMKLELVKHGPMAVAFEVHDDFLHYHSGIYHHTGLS
Chain of active mouse DPP1 enzyme (P97821 394-462): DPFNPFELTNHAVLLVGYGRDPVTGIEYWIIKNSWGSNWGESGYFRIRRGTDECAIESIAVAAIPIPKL
Chain of DPP1 in HL-60 cells (P53634 25-134): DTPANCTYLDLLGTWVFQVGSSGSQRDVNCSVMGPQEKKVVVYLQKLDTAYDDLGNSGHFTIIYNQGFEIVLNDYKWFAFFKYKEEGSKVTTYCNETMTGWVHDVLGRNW
Chain of DPP1 in HL-60 cells (P53634 231-394): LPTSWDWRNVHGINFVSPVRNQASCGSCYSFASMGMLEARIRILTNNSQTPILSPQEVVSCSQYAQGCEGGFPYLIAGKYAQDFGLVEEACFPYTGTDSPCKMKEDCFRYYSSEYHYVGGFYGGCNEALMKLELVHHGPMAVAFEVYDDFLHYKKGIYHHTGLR
Chain of DPP1 in HL-60 cells (P53634 395-463): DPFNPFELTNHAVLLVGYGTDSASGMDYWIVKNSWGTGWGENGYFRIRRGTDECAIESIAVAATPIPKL
Chain of Recombinant human DPP1 enzyme (P53634 25-134): as the sequence (P53634 25-134) above
Chain of Recombinant human DPP1 enzyme (P53634 231-394): as the sequence (P53634 231-394) above
Chain of Recombinant human DPP1 enzyme (P53634 395-463): as the sequence (P53634 395-463) above

For `N#Cc1ccc(-c2ccc(C[C@@H](C#N)NC(=O)[C@@H]3C[C@@H]4CCC[C@@H]4N3)c(F)c2)cc1`, the values for the IC50 (in experiment [1]; on active mouse DPP1 enzyme; at DPP1 in HL-60 cells) were 10.1 nM, 6.5 nM and 0.003 ± 0.0004 µM, respectively.
On the same counts, the results for `Cn1c(=O)oc2ccc(-c3ccc(C[C@@H](C#N)NC(=O)C4CNC(C)(C)CO4)cc3)cc21` (stereo partly drawn) are 360 nM, 785 nM and 0.0547 µM.
Consider `Cn1c(=O)oc2ccc(-c3ccc(C[C@@H](C#N)NC(=O)[C@@H]4C[C@@H]5COC[C@@H]5N4)cc3)cc21` [drawing 1208], for which the IC50 was found to be 311 nM in experiment [1], 136 nM on active mouse DPP1 enzyme and 0.462 µM on DPP1 in HL-60 cells.
On the same counts, the results for `Cn1c(=O)oc2ccc(-c3ccc(CC(C#N)NC(=O)C4CNC4)c(F)c3)cc21` (stereo not drawn) are 432 nM, 647 nM and 0.508 µM.
Taken in the same sequence, the figures for `Cn1c(=O)oc2ccc(-c3ccc(C[C@@H](C#N)NC(=O)C4CC5OCCC5N4)cc3)cc21` (stereo partly drawn) were 784 nM, 438 nM and 0.878 µM.
Take `Cn1c(=O)oc2ccc(-c3ccc(C[C@@H](C#N)NC(=O)CC4(N)CCCCC4)cc3)cc21`: the IC50 was found to be 1100 nM in experiment [1], 815 nM on active mouse DPP1 enzyme and 0.0401 µM on DPP1 in HL-60 cells.
With `N#Cc1ccc(-c2ccc(C[C@@H](C#N)NC(=O)[C@@H]3CNCCCO3)c(F)c2)cc1` [drawing 1196], the IC50 in experiment [1] stood at 31.4 nM; at active mouse DPP1 enzyme, 31 nM; on DPP1 in HL-60 cells, 0.0036 µM.
As to `Cn1c(=O)oc2ccc(-c3ccc(C[C@@H](C#N)NC(=O)[C@@H]4COCCN4)cc3)cc21`, the IC50 in experiment [1] stood at 537 nM; at active mouse DPP1 enzyme, 306 nM; on DPP1 in HL-60 cells, 0.33 µM.
